Experimental data published in patent publication US20220079889A1, “USE OF CANNABANOIDS IN THE TREATMENT OF PROLIFERATIVE DIABETIC RETINOPATHY” (VERDANT PHARMACEUTICALS, LLC, priority 2020, published 2022).
Entries after “also recorded” stand apart in the source; their conditions may differ.

What was measured:
[1] = test system: IL-1β-induced corneal lymphangiogenesis; assay: IL-1β-induced corneal lymphangiogenesis (anti-LYVE-1 stain); type: in vivo, BALB/c mice; details: 0.3 mg/kg daily i.p.
Method: BALB/c mice were anesthetized by intraperitoneal (i.p.) injection of pentobarbital sodium (60 mg/kg). Hydron pellets (0.3 μl) containing 30 ng mouse IL-1β (401-ML, R&D Systems) were prepared and implanted into the corneas. Pellets were positioned 1 mm from the corneal limbus. Implanted eyes were treated with Bacitracin ophthalmic ointment (E. Fougera & Co.) to prevent infection.
To block CB, mice received daily i.p. injections of a specific CBD. Compound II (R-tech Ueno Ltd., Tokyo, Japan) as described above. A daily dose of 0.3 mg/kg was administered at day 0 and continued until the sixth day after implantation. Two, four and six days after implantation, digital images of the corneal vessels were obtained and recorded using OpenLab software version 2.2.5 (Improvision Inc.) with standardized illumination and contrast and were saved onto disks. The quantitative analysis of new vessel growth in the mouse corneas was performed using Scion Image software (version 4.0.2, Scion Corp.).
Eyes were enucleated and fixed with 4% paraformaldehyde for one hour at 4° C. For whole-mount preparation, the corneas were exposed by removing other portions of the eye (i.e iris, sclera, retina, and conjunctiva). […]

[2] = test system: CNV lesions; assay: Laser injury CNV model, CNV size in choroidal flat mounts; type: in vivo, Brown-Norway rats; details: rats
Description: For reverse transcription polymerase chain reaction (RT-PCR) detection and immunofluorescence staining of CB in the choroid, Lewis rats (8-10 weeks old, Charles River Laboratories, Inc., Wilmington, Mass.) were used. To generate CNV in the laser injury model, Brown-Norway rats (10-12 weeks old, Charles River Laboratories, Inc., Wilmington, Mass.) were used. Rats were housed in plastic cages in a climate controlled animal facility and were fed laboratory chow and water ad libitum. All animal experiments were conducted in accordance with the ARVO Statement for the Use of Animals in Ophthalmic and Vision Research.
Lewis rats were euthanized by overdose anesthesia and perfused with PBS (500 ml/kg body weight (BW)). Eyes were immediately enucleated and the retinal pigment epithelium (RPE)-choroid complex was obtained from the rat eyes and homogenized in extraction reagent (TRIzol Reagent; Invitrogen, Carlsbad, Calif.). […] PCR products were analyzed by electrophoresis in a 1.5% agarose gel and stained with ethidium bromide ([…]). The expected sizes of the amplified cDNA fragments of CB and GAPDH were 341 bp and 387 bp, respectively Band densities were quantified using NIH Image 1.41 software (available by ftp from zippy.nimh.nih.gov/or from the web site, rsb info.nih.gov/nih-image: developed by Wayne Rasband, National Institutes of Health, Bethesda, Md.). […]

[3] = test system: MCP-1; assay: ELISA of RPE-choroid complex after laser injury: MCP-1; type: in vivo, rat; details: laser-treated animals, 3 days after laser injury; 0.3 mg/kg BW daily i.p.
Method: To block CB, a specific CBD, Compound 11 described above, was used (R-tech Ueno, Ltd., Tokyo, Japan). After laser injury, the inhibitor (0.3 mg/kg BW) was administered to the animals by daily i.p. injections. As a control, some animals received the same regimen for the vehicle solution alone.
The RPE-choroid complex was carefully isolated from eyes 3 days after photocoagulation and placed in 300 μl of lysis buffer supplemented with protease inhibitors and sonicated. The lysate was centrifuged at 15,000 rpm for 15 minutes at 4° C. and the levels of TNF-α, monocyte chemotactic protein (MCP)-1, and intercellular adhesion molecule (ICAM)-1 were determined with rat TNF-α (BI) bioscience), MCP-1 (BD bioscience) and ICAM-1 (R&D Systems, Minneapolis, Minn.) enzyme-linked immunosorbent assay (ELISA) kits according to the manufacturers' protocols. Total protein concentration was determined using a Bio-Rad Protein Assay Kit (Bio-Rad Laboratories Hercules, Calif.) and dilutions of bovine serum albumin (Bio-Rad Laboratories) as standards.

CC(=O)Nc1nc(CCc2ccc(NC(=N)NN)cc2)c(Cc2ccc(S(C)(=O)=O)cc2)s1 [Compound II]
effect on corneal lymphangiogenesis (in words) [1]: effectively suppresses corneal lymphangiogenesis | effect on CNV / CNV size (in words) [2]: significantly decreased; also recorded: effectively suppresses CNV | protein level of MCP-1 in the RPE-choroid complex [3]: 662 ± 52 pg/mg
